According to patent publication US20110152166A1, “METHOD OF MODULATION OF PROTEIN PHOSPHORYLATION-DEPENDENT CONFORMATIONAL TRANSITIONS WITH LOW MOLECULAR WEIGHT COMPOUNDS” (priority 2006, published 2011):
Substitutions are numbered along the chain they refer to. Read-outs that look alike come from different tables or passages of the source. Square brackets hold non-standard residues; d marks the D form. Ends that are not written are not given here. pS = N[C@@H](COP(=O)(O)O)C(=O)O

Assays:
Assay in all cases: PDK1 activity assay with T308tide
Type in all cases: biochemical
[1] = biological target: T1, GST-PDK1 [Gln150Ala] (Homo sapiens, UniProt O15530, Q150A); details: for activation of PDK1 mutant (in words): PDK1[Gln150Ala], 20 μM; for AC50 / Max. activity: GST-PDK1 [Gln150Ala]
T1 construct: different protein constructs, comprising the full length protein or the catalytic domain alone; made in house; host or cells: HEK293 cells (pEBG-2T-PDK1 mutant)
T1 sequence (O15530 1-556 Q150A): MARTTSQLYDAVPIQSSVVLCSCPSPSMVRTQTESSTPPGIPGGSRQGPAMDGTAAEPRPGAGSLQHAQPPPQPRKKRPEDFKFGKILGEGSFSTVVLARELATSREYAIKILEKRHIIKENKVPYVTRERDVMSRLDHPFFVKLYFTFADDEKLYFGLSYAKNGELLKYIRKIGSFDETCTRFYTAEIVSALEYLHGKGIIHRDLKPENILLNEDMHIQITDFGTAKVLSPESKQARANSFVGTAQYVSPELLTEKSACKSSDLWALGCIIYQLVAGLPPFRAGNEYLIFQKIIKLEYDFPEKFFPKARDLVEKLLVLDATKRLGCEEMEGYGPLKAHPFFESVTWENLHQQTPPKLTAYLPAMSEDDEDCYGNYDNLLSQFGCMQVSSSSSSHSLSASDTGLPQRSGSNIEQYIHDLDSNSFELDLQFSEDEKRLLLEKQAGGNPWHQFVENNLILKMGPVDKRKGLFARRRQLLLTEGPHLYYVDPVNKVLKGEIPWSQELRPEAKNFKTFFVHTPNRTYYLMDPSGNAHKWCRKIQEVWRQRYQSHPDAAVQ
Experimental: (§1) Protein kinase activity tests were performed essentially as previously described (Balendran et al., 2000; Biondi et al., 2000; Biondi et al., 2001). Substrates used were either MBP (for PKCζ or polypeptides (Crosstide for PKB, S6K, SGK and PRK2; T308tide for PDK1, and Kemptide for PKA). PKA (Sigma) was measured in the presence of 100 μM cAMP. Alternatively, assays were performed in a 96 well format, aliquots spotted on p81 phosphocellulose papers (Whatmann), washed in 0.01% phosphoric acid, dried, and then exposed and analysed using Phospholmager technology (Storm, Molecular Dynamics). Activity measurements were performed in duplicates with less than 10% difference between duplicate pairs. Experiments were repeated at least twice, although most of the experiments were repeated multiple times, with similar results.
(§2) PDK1 activity assay was performed in a 20 μl mix containing 50 mM Tris-HCl pH 7.5, 0.05 mg/ml BSA, 0.1% β-mercaptoethanol, 10 mM MgCl2, 100 μM [γ^32P]ATP (5-50 cpm/pmol), 0.003% Brij, 150 ng PDK1, and T308tide (from 0.05 to 1 mM). PDK1 specific activity was approximately 5 U/mg (when measured at 1 mM T308tide). The effect of small compounds on PDK1 was repeated with proteins from different purification batches and with different protein constructs, comprising the full length protein or the catalytic domain alone, with similar results. […] This variability may be due to the PIFtide/compound-stimulated autophosphorylation of the activation loop in certain preparations having less than a 1:1 molar phosphorylation stoichiometry at this site.
(§3) PDK1 activity was measured at room temperature using a polypeptide substrate derived from the activation loop phosphorylation site of PKB, T308tide (0.1 mM). […] GST-PDK1 wt was purified in numerous occasions and the maximal activation level of different batches varied between 3 and 8 fold activation with PIFtide or compound 1. Variations in the basal activity and fold activation were also observed in mutants. Therefore, comparisons in the maximal level of activation between mutants should be performed with care. The data shown are from an experiment where PIFtide concentrations were tested between 50 nM and 20 µM and compound 1 concentrations were between 5 μM and 200 μM, in triplicate. AC50 and max. activity were estimated by fitting the data to a hyperbola using Kaleidagraph software. One Unit of PDK1 activity was defined as the amount required to catalyse the phosphorylation of 1 nmol of the T308tide in 1 min.

[2] = biological target: T2, GST-PDK1 [Ile119Ala] (Homo sapiens, UniProt O15530, I119A); details: for AC50 / Max. activity: GST-PDK1 [Ile119Ala]
T2 construct: different protein constructs, comprising the full length protein or the catalytic domain alone; made in house; host or cells: HEK293 cells (pEBG-2T-PDK1 mutant)
T2 sequence (O15530 1-556 I119A): T1 sequence (O15530 1-556 Q150A) with I119A, A150Q
Experimental: as §1, §2, §3

[3] = biological target: T3, GST-PDK1 wt (Homo sapiens, UniProt O15530); details: for activation of PDK1 (in words): PDK1 wild type; for PDK1 (%) activity: 1% DMSO = 100%
T3 construct: different protein constructs, comprising the full length protein or the catalytic domain alone; made in house; host or cells: HEK293 cells (pEBG-2T-PDK1)
T3 sequence (O15530 1-556): T1 sequence (O15530 1-556 Q150A) with A150Q
Experimental: as §1, §2, §3

[4] = GST-PDK1 wt, T308tide 0.1 mM, read-out: AC50

activation of PDK1 mutant (in words) [1]	activation of PDK1 mutant (in words) ([2]; Ile119 mutant, P-HM-RSK 20 μM)	activation of PDK1 (in words) [3]	PDK1 (%) activity ([3]; 20 μM compound) [%]	PDK1 (%) activity ([3]; 200 μM compound) [%]	AC50 [1] [µM]	Max. activity [1] [U/mg]	AC50 [2] [µM]	Max. activity [2] [U/mg]	Max. activity ([3]; GST-PDK1 wt, T308tide 0.1 mM) [U/mg]	AC50 [3, 4] [µM]	AC50 ([3]; FIG. 2B, read-out: AC50 of PDK1 activation) [µM]	Compound
completely abolished	completely abolished	activated	–	–	–	–	–	–	–	–	–	P-HM-RSK: phosphorylated HM polypeptide of RSK: KGAGGGGFRGFS(P)FVA (KGAGGGGFRGF[pS]FVA)
–	–	inactive	109	124	–	–	–	–	–	–	–	COC(=O)CSC(CC(=O)c1ccc(Cl)cc1)c1ccccc1 (centres unmarked) [Compound 2]
–	–	–	–	–	0.5 ± 0.06	1.55 ± 0.06	0.66 ± 0.14	2.58 ± 0.17	0.9 ± 0.05	0.11 ± 0.03	–	REPRILSEEEQEMFRDFDYIADWC [PIFtide, reference compound]
still activated	–	activated PDK1	234	370	55 ± 9	1.12 ± 0.06	90 ± 20	2.1 ± 0.23	1.1 ± 0.07	34 ± 9	25	O=C(O)CSC(CC(=O)c1ccc(Cl)cc1)c1ccccc1 (centres unmarked) [Compound 1]
